Format in all cases: physicochemical
Series [1] is described as follows: Fluorescence response to pH in buffered water. The settings on record: 10 μM in water, pH = 7.5.
The nature of series [2]: Fluorescence response to pH in buffered water. The procedure:
Stock solutions of each compound (having a concentration of from 1-5 mM) were prepared by dissolving the corresponding salts of the compounds in methanol or 1V, N-dimethylformamide, and then diluting the same with acetonitrile or buffered water having a pH of from 2.5 to 7.5 derived from 0.2 M […] and 0.1 M citric acid, to achieve a sample solution having a compound concentration of 30.0 μM.
The emission spectrum for each sample was obtained. The results are illustrated by the plot in FIG. 2A.
The emission spectrum for each sample was obtained. […] The results are illustrated in the plot of FIG. 2B.
The fluorescence emission spectrum of Compound 8 in water having a pH of 2.5 was also obtained and is illustrated by the curved line with a peak at 360 nm in FIG. 5B.
Compounds 10, 11, and 12 were each individually added, at a concentration of 30 μM, to water having a pH=7.5 and the emission spectra of each were obtained. […] As the pH was decreased from 7.5 to 2.5 in 0.5 pH unit increments, fluorescence emission at 600 nm remained relatively nonexistent and the intensity of the fluorescence emission at 400 nm increased in correlation to the decrease in pH. FIG. 8A illustrates the emission properties of Compound 12.

A short description of series [3]: Ultraviolet-visible light spectrum (maximum absorbance wavelength). The protocol: Method for Obtaining an Ultraviolet-Visible Light Spectrum
Ultraviolet-visible (UV-Vis) Light spectra are obtained and recorded on an Agilent 8453 spectrophotometer using ChemStation software (Agilent Technologies, Inc., Santa Clara, Calif.).
(§1) The compounds were analyzed at 298° K according to the Method for Obtaining Ultraviolet-Visible Light Spectrum (30 μM acetonitrile) to obtain the maximum absorbance wavelength (λabs,max), Method for Obtaining Fluorescence Emission Spectrum (30 μM acetonitrile) to obtain the maximum emission wavelength (λem,max) and Method for Determining Quantum Yield (ΦF) (30 μM acetonitrile) at the concentration, in the solvent, and with the counter ion indicated in Table 1. The compounds included hydrogen at each R group that is not otherwise specified.
(§2) Compounds 6, 7, 9, 11-14 and 21 were analyzed according to: the Method for Obtaining Ultraviolet-Visible Light Spectrum to obtain the maximum absorbance wavelength (λabs,max), the Method for Obtaining Fluorescence Emission Spectrum to obtain the maximum emission wavelength (λem,max), and the Method for Determining Quantum Yield (ΦF) in the solvent and with the counter ion indicated in Table 3.

A short description of series [4]: Fluorescence emission spectrum (maximum emission wavelength). The procedure:
Method for Obtaining a Fluorescence Emission Spectrum
Fluorescence emission spectra are obtained and recorded on a QM-4-CW Spectrofluorometer using FeliX32 software (Photon Technology International, Inc., Birmingham, N.J.).
as §1, §2

Series [5] in a line: Fluorescence quantum yield, integrating sphere. The procedure: Method for Determining Quantum Yield
Quantum yield is determined using an integrating sphere attached to a QM-4-CW Spectrofluorometer using FeliX32 software (Photon Technology International).
as §1, §2

The nature of series [6]: Fluorescence response to trifluoroacetic acid / DBU in acetonitrile. The procedure:
A 30 μM solution of Compound 6 in acetonitrile was prepared by adding 99 μL of a stock solution of 3.04 mM Compound 6 in methanol to 10 mL of acetonitrile. An initial fluorescence emission spectrum of the solution was obtained and is illustrated by curve (i) in FIG. 1A.
A series of approximately 13.8 μL aliquots of trifluoroacetic acid (TFA) were then added to the 30 μM solution of Compound 6 until a total concentration of 60.0 mM of TFA was present in the solution. (The total amount of TFA present in the solution corresponded to 2000 equivalents of acid per equivalent of Compound 6.) The fluorescence emission spectrum of the resulting solution was obtained and is illustrated by curve (ii) in FIG. 1A.
A base, i.e., 1,8-diazabicyclo[5.4.0]undec-7-ene (DBU), was then added to the solution to neutralize the acid until a concentration of 90 mM DBU was obtained. The fluorescence emission spectrum of the resulting solution was obtained and is illustrated by curve (iii) in FIG. 1A. The fluorescence emission intensity at λem,max=565 nm increased as the amount of base present in the system increased and the fluorescence emission intensity at λem,max=405 nm decreased as the amount of base present in the system increased, which reflected Compound 6's ratiometric response to the changing base concentration in acetonitrile.
A 30 μM solution of Compound 7 in acetonitrile was prepared by adding 84 μL of a stock solution of 3.58 mM Compound 7 in methanol to 10 mL of acetonitrile. The emission spectrum of the solution was then obtained and is illustrated by curve (i) in FIG. 1B.
A series of approximately 13.8 μL aliquots of TFA were then added to the 30 μM solution of Compound 7 until a total concentration of 60.0 mM TFA was present in the solution (which corresponded to 2000 equivalents of acid per equivalent of Compound 7). The fluorescence emission spectrum of the solution was obtained and is illustrated by curve (ii) in FIG. 1B.
After the 60 mM TFA concentration was achieved, DBU was gradually added to the solution until a total concentration of 90 mM DBU was present in the solution. The fluorescence spectrum of the solution was obtained and is illustrated by curve (iii) in FIG. 1B.
An aliquot of 50 μL of trifluoroacetic acid was then added to the system, and the fluorescence emission spectrum was obtained and is illustrated by the curved line with a peak at 360 nm in FIG. 6A.
Compound 10 was placed in neat acetonitrile and its emission spectrum was monitored as trifluoroacetic acid was added to the acetonitrile in incremental amounts to achieve a solution that included an acid concentration ranging from 0 to 0.2 M. After each acid addition the sample was excited with radiation of a wavelength 340 nm, and its fluorescence emission spectrum was monitored. The results are illustrated in FIG. 7A.
The solution of Compound 10 in acetonitrile was titrated with trifluoroacetic acid (TFA). […] The first stage, which occurred with the addition of the initial aliquots of TFA, was a slight increase intensity at 580 nm, as illustrated in FIG. 7A. As more TFA was added to the system, a second transition occurred in which the emission at 580 nm began to decrease and as the emission at 400 nm began to increase, as illustrated in FIG. 7B. A plot of the emission intensity at 580 nm versus pH and at 400 nm versus pH is illustrated in FIG. 7C.
Compounds 10, 11, and 12 were then each individually added, at a concentration of 30 μM, to acetonitrile and the emission spectrum of each was monitored. The compounds emitted at 600 nm with an intensity of about 7.57×10^5 arbitrary units (a.u.) in neat acetonitrile. […] FIG. 8B illustrates the emission properties of Compound 12.

A short description of series [7]: Fluorescence response to hydrophobic environment (acetonitrile in water, SDS). The procedure:
Compound 12 was placed in water and the intensity of its fluorescence emission at 600 nm was monitored as the concentration of acetonitrile was increased from 0 volume to volume (v/v) % to 100 v/v % in increments of 10 v/v %.
Compound 12 was added to an aqueous solution of sodium dodecylsulfate (SDS) and monitored for fluorescence emission at 600 nm.

[8] abbreviates: 30 μM acetonitrile, 298 K, Table 1.

As to `CCN(CC)c1ccc(-n2cc3cccc[n+]3c2)cc1` [Compound 2, 2-(4-(diethylamino)phenyl)-2H-imidazo[1,5-a]pyridin-4-ium hexafluorophosphate], the “emission maxima λem” value in series [1] and in series [2] (Example 13B: printed 'neat acetonitrile having a pH of 7.5' / 'pH=7.5 in water') was 550 nm throughout. For the same compound, the “fluorescence λem” value in series [2] (Example 13B: pH decreased to 2.5) was 360-375 nm; in series [2] (water, pH 2.5), 360-375 nm. In addition, the “λabs, max Abs” value in series [3] (setting [8]) came to 330 nm. Besides, the “λem, max Em” value in series [4] (setting [8]) was 515 nm. For the same compound, the “ΦF (quantum yield)” value in series [5] (setting [8]) is reported as 30%.
For the compound `CCN(CC)c1ccc(-n2cc3cccc(-c4cn(-c5ccc(C)cc5)nn4)[n+]3c2)cc1.[Cl-]` [Compound 12, 2-(4-(diethylamino)phenyl)-5-(1-(p-tolyl)-1H-1,2,3-triazol-4-yl)-2H-imidazo[1,5-a]pyridin-4-ium chloride], in series [6] (30 μM in acetonitrile + 50 μL trifluoroacetic acid), the “emission intensity at 400 nm” value is given as 1.34×10^6 a.u. Further, the “emission intensity at 600 nm” value in series [6] (30 μM in neat acetonitrile) is reported as “about 7.57×10^5 arbitrary units (a.u.)”. Moreover, in series [6] (30 μM in neat acetonitrile), the emission wavelength was determined as 600 nm. In addition, the “emission wavelength λem,max” value in series [6] (acetonitrile + 50 μL trifluoroacetic acid) is on record as 400 nm. For the same compound, the “fluorescence emission in water at pH 7.5” value in series [2] (water pH 7.5) was “essentially no fluorescence emission”. Moreover, the “fluorescence intensity at 600 nm” value in series [7] (100 v/v % acetonitrile) is 6.48×10^5 a.u; in series [7] (water, 0 v/v % acetonitrile), 7.81×10^3 a.u. The “λabs, max Abs” value in series [3] (H2O pH = 2.2, 30 μM) is 340 nm; in series [3] (H2O pH = 7.5, 30 μM), 340 nm; in series [3] (MeCN + 50 μL TFA, 30 μM), 340 nm; in series [3] (MeCN, 30 μM), 340 nm. For the same compound, the “λem, max Em” value in series [4] (H2O pH = 2.2, 30 μM) was 400 nm; in series [4] (MeCN + 50 μL TFA, 30 μM), 400 nm; in series [4] (MeCN, 30 μM), 600 nm. Moreover, the “[…]F (quantum yield)” value was found to be 66% in series [5] (H2O pH = 2.2, 30 μM); 0% in series [5] (H2O pH = 7.5, 30 μM); 57% in series [5] (MeCN + 50 μL TFA, 30 μM); 30% in series [5] (MeCN, 30 μM).
